Measured values reported in US4833138A, “Phenothiazinealkaneamines for treatment of neurotoxic injury” (priority 1987, dated 1989).
Structures can show the parent of a compound that is named as a salt.

Columns and labels:
[1] = tested on: NMA neurotoxicity in chick embryo retina; assay: NMDA/KA Antagonist Assay, chick embryo retina, NMA (200 μM) neurotoxicity; format: cell-based; settings: 15-day old chick embryo retina, 30 min at 37° C., n>6
Experimental: (§1) Two agonists were employed in the present test, each at a concentration established previously to be the lowest concentration required to consistently cause a fully-developed retinal lesion: KA (25 μM) and NMA (200 μM). […] Internal controls in each experiment consisted of at least six specimens being incubated with agonist alone. […] The method of tissue preparation was as follows: 15-day old chick embryos were decapitated and their eyes removed and cut into quadrants after excising the cornea and removing the lens, vitreous and iris. The retinal quadrants were then gently separated from the pigment epithelium and incubated for 30 min. at 37° C. in BSS to which an agonist or agonist plus antagonist was added. The BSS contained 140 mM Na^+, 5.0 mM K^+, 0.5 mM Ca^++, 4 5mM Mg^++, 150 mM Cl^-, 5.6 mM glucose and bicarbonate/phosphate buffer (pH 7.3). After incubation for 30 min., the retinal quadrants were fixed by immersion in phosphatebuffered solution containing 1.5% glutaraldehyde and 1% paraformaldehyde, then additionally fixed in 1% osmium tetroxide, dehydrated in graded ethanols, cleared in toluene and embedded in araldite. Sections were cut 1 μM thick on a Sorval ultratome and stained with Methylene blue/Azure 11 for histopathological evaluation by light microscopy.

[2] = tested on: KA neurotoxicity in chick embryo retina; assay: NMDA/KA Antagonist Assay, chick embryo retina, KA (25 μM) neurotoxicity; format: cell-based; settings: 15-day old chick embryo retina, 30 min at 37° C.
Experimental: as §1

[3] = tested on: [^3 H]PCP binding sites, rat cerebral cortical membranes; settings: Goldman et al, FEBS Lett. 1985; cited from earlier work
[4] = tested on: N-Methylaspartate excitation of spinal neurones; settings: Berry et al, Eur. J. Pharm. 1983; binding and behavioral data; cited from earlier work
[5] = tested on: chick embryo retina; assay: Acute excitotoxic lesion of chick embryo retina by agonist alone; settings: 1 mM Glu, 30 min in BSS
Experimental: as §1

[6] = tested on: N-methyl-D-aspartate receptor; settings: Wong et al, PNAS 1986; cited from earlier work
[7] = tested on: chick embryo retina; settings: chicken, 30 min
Experimental: as §1

[8] = tested on: NMA neurotoxicity; settings: Olney et al, Neuroscience Letters 1986 for PCP and ketamine; competitive NMA antagonist statement without reference; cited from earlier work
[9] = tested on: NMDA receptor (N-Methyl-Aspartate excitation of central mammalian neurones); settings: Anis et al, Br. J. Pharmacol. 1983; cited from earlier work

In the case of “10-[2-(diethylamino)ethyl]phenothiazine [ethopropazine]”, the “concentration providing total protection against toxicity of NMA” value [1] is reported as 25.0 µM and the “blocking of KA toxicity” value [2] is reported as “not observed”.

For `CC1CCCN(C2(c3ccccc3)CCCCC2)C1` (single isomer, unassigned; (+)) [(+)-PCMP, (+)-1-(1-phenylcyclohexyl)-3-methylpiperidine], the “inhibition of the specific binding of [^3 H]PCP” value [3] is given as “potent inhibitor” and the “stereoselective effect over isomer counterpart in reducing the excitatory action of NMDA” value [4] is given as “stereoselective effects”.

In the case of `N[C@@H](CCC(=O)O)C(=O)O` [Glu, Glutamate], the retinal lesion [5] is reported as “full lesion”.

In the case of `C[C@]12N[C@H](Cc3ccccc31)c1ccccc12` [MK-801, (+)-5-methyl-10,11-dihydro-5H-dibenzo[a,d]cyclohepten-5,10-imine maleate)], the “antagonism of the N-methyl-D-aspartate receptor site” value [6] is given as “potent, selective non-competitive antagonist”.

With `CN[C@H](CC(=O)O)C(=O)O` [NMA, N-methyl-D-aspartate] the “lowest concentration required to consistently cause a fully-developed retinal lesion” value [7] was 200 µM.

In the case of `c1ccc(C2(N3CCCCC3)CCCCC2)cc1` [PCP], the “blocking of NMA neurotoxicity” value [8] is given as “Blocking of NMA neurotoxicity” and the “reduction of excitatory effects of NMDA as compared to KA and QUIS” value [9] is given as “reduce selectively the excitatory effects of NMDA as compared to KA and QUIS”.

For `CC1CCC(c2ccccc2)(N2CCCCC2)CC1` (stereo not drawn) [cis-N-(1-phenyl-4-methylcyclohexyl)piperidine], the “stereoselective effect over isomer counterpart in reducing the excitatory action of NMDA” value [4] is given as “stereoselective effects”.

In the case of `CNC1(c2ccccc2Cl)CCCCC1=O` (stereo not drawn) [ketamine], the “blocking of NMA neurotoxicity” value [8] is listed as “Blocking of NMA neurotoxicity” and the “reduction of excitatory effects of NMDA as compared to KA and QUIS” value [9] is listed as “reduce selectively the excitatory effects of NMDA as compared to KA and QUIS”.
